Among the test systems are UACC-62 melanoma; HOP-62 NSCLC; MALME-3M melanoma; U251 CNS; SF-268 CNS; SF-295 CNS.
What all share (assay): NCI tumour cell line growth inhibition, 48 h

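1) Cells in 96-well plates. 2) Compound, 48 h, 5 concentrations. 3) Linear interpolation between surrounding doses. 4) Unreached endpoint = highest concentration. Here, GI50 denotes the concentration required for 50% inhibition of growth. TGI: concentration producing complete growth inhibition.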 Where only a bound is given, the exact number is not on record here.

For `CC(=O)c1ccc(NC(=O)CSc2nnc(-c3cc(-c4ccc(C)cc4)nc4ccccc34)o2)cc1`, the GI50 in the test on UACC-62 melanoma is 24.2 µM; in the test with HOP-62 NSCLC, 2.08 µM; with MALME-3M melanoma, 2.67 µM; in the test with U251 CNS it was 1.97 µM; in the test on SF-268 CNS it was 3.12 µM; in the test with SF-295 CNS, 2.18 µM. In addition, the TGI in the test on UACC-62 melanoma is over 100 µM; with HOP-62 NSCLC, 5.7 µM; with MALME-3M melanoma, 8.34 µM; in the test with U251 CNS, 3.92 µM; in the test on SF-268 CNS, over 100 µM; in the test on SF-295 CNS, 6.08 µM.
Take `COc1cc(C(=O)/C=C/c2cc(C(=O)c3cc(OC)c(OC)c(OC)c3)ccc2OC)ccc1N`: the GI50 is 1.17 µM in the test with UACC-62 melanoma; 2.03 µM in the test with HOP-62 NSCLC; 1.47 µM in the test with MALME-3M melanoma; 1.02 µM in the test on U251 CNS; 2.3 µM in the test with SF-295 CNS. Moreover, the TGI with UACC-62 melanoma is 2.66 µM; in the test on HOP-62 NSCLC it was 8.31 µM; with MALME-3M melanoma it was 4.16 µM; in the test on U251 CNS, 2.22 µM; with SF-295 CNS, 17.4 µM.
As for `CCCCCCCC/C=C/CCCCCCCC1=NCC[N+]1(CCO)CCO`, the GI50 in the test on UACC-62 melanoma was 5 µM; with HOP-62 NSCLC, 6.36 µM; in the test on MALME-3M melanoma, 3.19 µM; in the test with U251 CNS, 1.42 µM; in the test on SF-268 CNS it was 3.25 µM; in the test with SF-295 CNS, 1.75 µM. The TGI in the test on UACC-62 melanoma came to 21.4 µM; in the test with HOP-62 NSCLC, 19.8 µM; with MALME-3M melanoma it was 12.4 µM; in the test on U251 CNS, 2.86 µM; with SF-268 CNS it was 13 µM; with SF-295 CNS, 4.07 µM.
Consider `CCN(CC)c1cc(/C=C/c2ccc(OC)c(OC)c2)nc2cc(F)c(F)cc12`, for which the GI50 was 7.04 µM in the test with UACC-62 melanoma; 2.08 µM with HOP-62 NSCLC; 2.18 µM in the test on U251 CNS; 3.15 µM with SF-268 CNS; 2.03 µM in the test with SF-295 CNS. Further, the TGI was over 100 µM in the test on UACC-62 melanoma; 5.44 µM with HOP-62 NSCLC; 4.98 µM in the test on U251 CNS; 11.4 µM in the test with SF-268 CNS; 4.63 µM in the test on SF-295 CNS.
Consider `COC(=O)c1ccc2c(c1)nc(-c1cc3ccccc3[nH]c1=O)n2-c1cc(C(C)(C)C)[nH]n1`, for which the GI50 in the test on HOP-62 NSCLC was 0.996 µM; with MALME-3M melanoma, 2.63 µM; in the test on U251 CNS, 0.987 µM; in the test with SF-268 CNS, 2.24 µM; with SF-295 CNS it was 2.14 µM. In addition, the TGI in the test with HOP-62 NSCLC was over 100 µM; in the test with MALME-3M melanoma it was over 100 µM; in the test with U251 CNS, over 100 µM; with SF-268 CNS it was over 95.9 µM; with SF-295 CNS it was over 50.5 µM.
In the case of `COc1cc(/C=C/c2cc(/C=C/c3ccc(O)c(OC)c3)n(-c3c(C)cccc3C)c(=O)n2)ccc1O`, the GI50 in the test with UACC-62 melanoma is 0.635 µM; in the test with HOP-62 NSCLC, 1.08 µM; in the test with U251 CNS, 0.635 µM; in the test on SF-268 CNS it was 1.19 µM. Also, the TGI with UACC-62 melanoma came to 3.28 µM; with HOP-62 NSCLC, 2.76 µM; with U251 CNS, 4.08 µM; in the test with SF-268 CNS it was 11.5 µM.
As for `CCC(C)n1cc(C)c2c(C(=O)NCc3c(C)cc(C)[nH]c3=O)cc(Br)cc21` (stereo not drawn), the GI50 with UACC-62 melanoma was 29.4 µM; in the test with HOP-62 NSCLC, 65.2 µM; with MALME-3M melanoma, 36.2 µM; in the test on U251 CNS, 62.8 µM; in the test on SF-268 CNS, 72.3 µM; in the test with SF-295 CNS it was 29.9 µM. Moreover, the TGI in the test with UACC-62 melanoma was over 100 µM; in the test with HOP-62 NSCLC, over 100 µM; in the test with MALME-3M melanoma it was 99.7 µM; in the test on U251 CNS, over 100 µM; in the test with SF-268 CNS it was over 100 µM; with SF-295 CNS, over 100 µM.
For the compound `Cc1nc2sccn2c(=O)c1CCN1CCC(=C(c2ccc(F)cc2)c2ccc(F)cc2)CC1`, the GI50 with UACC-62 melanoma was 6.73 µM; in the test with HOP-62 NSCLC, 17.9 µM; in the test with MALME-3M melanoma, 11.4 µM; with U251 CNS, 10.5 µM; in the test on SF-268 CNS, 15.9 µM; in the test with SF-295 CNS it was 13 µM. Besides, the TGI in the test on UACC-62 melanoma came to 20.5 µM; with HOP-62 NSCLC, 33.4 µM; in the test with MALME-3M melanoma it was 25.5 µM; in the test on U251 CNS, 23.7 µM; in the test on SF-268 CNS, 32.8 µM; in the test with SF-295 CNS, 28.7 µM.
On to `O=C1OCC(c2cccs2)=C1Cl`, for which the GI50 in the test with UACC-62 melanoma is 19.5 µM; in the test with HOP-62 NSCLC it was over 100 µM; in the test with MALME-3M melanoma, over 100 µM; in the test on U251 CNS, 52.9 µM; with SF-268 CNS it was over 100 µM; in the test with SF-295 CNS, 80.9 µM. Further, the TGI with UACC-62 melanoma, with HOP-62 NSCLC, in the test with MALME-3M melanoma, in the test on U251 CNS, with SF-268 CNS and with SF-295 CNS was over 100 µM in each case.
For the compound `O=C1C(Br)=CC2(C=C1Br)CCN=c1c2c(O)c2nc3ccccc3c3ccnc1c23`, the GI50 in the test with UACC-62 melanoma was 3.31 µM; with HOP-62 NSCLC it was 7.99 µM; in the test with MALME-3M melanoma, 1.41 µM; in the test on U251 CNS, 1.67 µM; with SF-268 CNS, 0.672 µM; with SF-295 CNS, 5.97 µM. The TGI in the test with UACC-62 melanoma was 10.7 µM; with HOP-62 NSCLC it was 15.6 µM; with MALME-3M melanoma it was 3.44 µM; in the test on U251 CNS, 7.04 µM; in the test on SF-268 CNS, 1.91 µM; with SF-295 CNS, 19.3 µM.
Regarding `CC(C)C1OC(=O)C=C1Sc1ccccc1` (stereo not drawn), the TGI with UACC-62 melanoma, with HOP-62 NSCLC, in the test with MALME-3M melanoma, with U251 CNS, with SF-268 CNS and in the test with SF-295 CNS was over 100 µM in each case.
As for `COc1cc(NCCCCN=C(N)NC(N)=NC(C)C)c2ncccc2c1`, the GI50 was 10.3 µM in the test with UACC-62 melanoma; 13.7 µM with HOP-62 NSCLC; 1.14 µM in the test with MALME-3M melanoma; 5.65 µM with U251 CNS; 3.83 µM in the test with SF-268 CNS; 23 µM in the test with SF-295 CNS. The TGI in the test on UACC-62 melanoma is 24.3 µM; in the test with HOP-62 NSCLC, 28.6 µM; in the test with MALME-3M melanoma, 4.6 µM; with U251 CNS, 21.1 µM; in the test on SF-268 CNS, 17.9 µM; with SF-295 CNS it was over 91.1 µM.

Values taken from PubChem BioAssay (NCI).
